Source: US11491245B2, “Gadolinium chelate compounds for use in magnetic resonance imaging” (BAYER PHARMA AKTIENGESELLSCHAFT, priority 2015, dated 2022)

What was measured:
[1] = Relaxivity measurements at 3.0 T; assay type: physicochemical; conditions: 37° C., normalized to Gd, average ± standard deviation
In short: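 T1 measured at 3.0 T and 37 °C by inversion recovery (TE 7.46 ms, TIs 50–4500 ms) in water and fresh citrated human plasma. Three concentrations between 0.05 and 2 mM; relaxivity from slope of relaxation rate versus Gd-normalised concentration.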

[2] = Pharmacokinetic parameters in rats (blood plasma kinetic); assay type: in vivo, male rats (Han-Wistar)
Method: Pharmacokinetic parameters of the compound of Example 3 were determined in male rats (Han-Wistar, 220-230 g, n=3). The compound was administered as a sterile aqueous solution (52.5 mmol Gd/L) as a bolus in the tail vein of the animals. The dose was 0.1 mmol Gd/kg. Blood was sampled 1, 3, 5, 10, 15, 30, 60, 90, 120, 240, 360, 480 and 1440 min post injection and the Gd concentration was determined by Inductively Coupled Plasma Mass Spectroscopy (ICP-MS Agilent 7500a, Waldbronn, Germany). The blood level was converted to plasma concentrations by division by 0.625 (plasma fraction of rat blood, assuming strictly extracellular distribution). As a control, 3 animals were treated in the same way with Gadovist®, a low molecular weight contrast agent.
The fit of the obtained data to a three compartment model (Phoenix—WinNonlin) yielded the pharmacokinetic parameters which are shown in Table 3.

[3] = Contrast-enhanced magnetic resonance angiography (CE-MRA); assay type: in vivo, male New Zealand white rabbits; conditions: rabbits
Method: Reference compound 1 (Gadovist®), as an approved representative of the Gadolinium-based MRI contrast agents, was used in both dose protocols (100 μmol Gd/kg bw and 30 μmol Gd/kg bw) and compared to Example 3 (30 μmol Gd/kg bw).
The contrast-enhanced magnetic resonance angiography study was performed at a clinical 1.5 T Scanner (Magnetom Avanto, Siemens Healthcare, Erlangen, Germany). For optimal signal exploitation, a standard spine coil was used for the data acquisition. The study was done using male New Zealand white rabbits (weight 2.5-2.9 kg, n=6, Charles River Kisslegg). All animals were initially anesthetized using a body weight-adjusted intramuscular injection of a mixture (1+2) of xylazine hydrochloride (20 mg/mL, Rompun 2%, Bayer Vital GmbH, Leverkusen, Germany) and ketamine hydrochloride (100 mg/mL, Ketavet, Pfizer, Pharmacia GmbH, Berlin, Germany) using 1 mL/kg body weight. […]
Based on a localizer sequence oriented in coronal, axial, and sagittal directions, the anatomic course of the aorta was acquired. The time to peak was determined using a small intravenous test bolus (0.25 mL/2.5-2.7 kg or 0.3 mL/2.8-2.9 kg bw, Reference compound 1) and a 3D FLASH sequence (test bolus sequence: repetition time: 36.4 millisecond, echo time 1.45 millisecond, flip angle: 30 degree, spatial resolution: 1.0×0.8×17 mm). […]

[4] = male rats, 0.1 mmol Gd/kg bolus tail vein, mean
[5] = male rats, 0.1 mmol Gd/kg bolus tail vein, three compartment model, mean

## CC(C(=O)NCC(=O)NCC(CNC(=O)CNC(=O)C(C)N1CCN(CC(=O)[O-])CCN(CC(=O)[O-])CCN(CC(=O)[O-])CC1)(CNC(=O)CNC(=O)C(C)N1CCN(CC(=O)[O-])CCN(CC(=O)[O-])CCN(CC(=O)[O-])CC1)CNC(=O)CNC(=O)C(C)N1CCN(CC(=O)[O-])CCN(CC(=O)[O-])CCN(CC(=O)[O-])CC1)N1CCN(CC(=O)[O-])CCN(CC(=O)[O-])CCN(CC(=O)[O-])CC1.[Gd+3].[Gd+3].[Gd+3].[Gd+3] (centres unmarked) [Example 3, Tetragadolinium [4,10-bis(carboxylatomethyl)-7-{3,6,12,15-tetraoxo-16-[4,7,10-tris-(carboxylatomethyl)-1,4,7,10-tetraazacyclododecan-1-yl]-9,9-bis({[({2-[4,7,10-tris-(carboxylatomethyl)-1,4,7,10-tetraazacyclododecan-1-yl]propanoyl}amino)acetyl]-amino}methyl)-4,7,11,14-tetraazaheptadecan-2-yl}-1,4,7,10-tetraazacyclododecan-1-yl]acetate]
[1]; human plasma
  r1 human plasma: 10.2 ± 0.2 L/mmol/s
[1]; water
  r1 water: 9.2 ± 0.3 L/mmol/s
[2]; [4]
  AUC∞ Area under the curve (to infinity): 9040 µmol·min/L
  MRT Mean residence time: 24.1 min
  V1 + V2 Volume, compartments V1 + V2: 0.26 L/kg
  V2 Volume, compartment V2: 0.15 L/kg
  Vc (V1) Volume, central compartment V1: 0.11 L/kg
  Vd,ss Volume of distribution at steady state: 0.28 L/kg
[2]; [5]
  t½ α Half-life, compartment V1: 1.7 min
  t½ β Half-life, compartment V2: 18.2 min
  t½ γ Half-life, compartment V3: 133 min
[2]; rats, versus Gadovist®, FIG. 1
  pharmacokinetic profile (blood plasma kinetic): comparable to that of Gadovist®
[3]; 30 μmol Gd/kg bw vs 30 μmol Gd/kg bw Reference compound 1, 1.5 T
  image quality of the low dose protocol: significantly better than the low dose protocol of Reference compound 1
[3]; 30 μmol Gd/kg bw vs 100 μmol Gd/kg bw Reference compound 1, 1.5 T
  contrast enhancement of the low dose protocol: comparable to that of the standard dose of Reference compound 1
